These compounds were tested against T1, ATPase family AAA domain-containing protein 2 (Homo sapiens, UniProt Q6PL18) (assay: Binding affinity to recombinant human ATAD2 (982 to 1108 amino acids) bromodomain […] at methyl groups of leucine, valine, isoleucine, methionine expressed in Escherichia coli BL21 (DE3) by NMR titration).
T1 sequence (Q6PL18 whole entry): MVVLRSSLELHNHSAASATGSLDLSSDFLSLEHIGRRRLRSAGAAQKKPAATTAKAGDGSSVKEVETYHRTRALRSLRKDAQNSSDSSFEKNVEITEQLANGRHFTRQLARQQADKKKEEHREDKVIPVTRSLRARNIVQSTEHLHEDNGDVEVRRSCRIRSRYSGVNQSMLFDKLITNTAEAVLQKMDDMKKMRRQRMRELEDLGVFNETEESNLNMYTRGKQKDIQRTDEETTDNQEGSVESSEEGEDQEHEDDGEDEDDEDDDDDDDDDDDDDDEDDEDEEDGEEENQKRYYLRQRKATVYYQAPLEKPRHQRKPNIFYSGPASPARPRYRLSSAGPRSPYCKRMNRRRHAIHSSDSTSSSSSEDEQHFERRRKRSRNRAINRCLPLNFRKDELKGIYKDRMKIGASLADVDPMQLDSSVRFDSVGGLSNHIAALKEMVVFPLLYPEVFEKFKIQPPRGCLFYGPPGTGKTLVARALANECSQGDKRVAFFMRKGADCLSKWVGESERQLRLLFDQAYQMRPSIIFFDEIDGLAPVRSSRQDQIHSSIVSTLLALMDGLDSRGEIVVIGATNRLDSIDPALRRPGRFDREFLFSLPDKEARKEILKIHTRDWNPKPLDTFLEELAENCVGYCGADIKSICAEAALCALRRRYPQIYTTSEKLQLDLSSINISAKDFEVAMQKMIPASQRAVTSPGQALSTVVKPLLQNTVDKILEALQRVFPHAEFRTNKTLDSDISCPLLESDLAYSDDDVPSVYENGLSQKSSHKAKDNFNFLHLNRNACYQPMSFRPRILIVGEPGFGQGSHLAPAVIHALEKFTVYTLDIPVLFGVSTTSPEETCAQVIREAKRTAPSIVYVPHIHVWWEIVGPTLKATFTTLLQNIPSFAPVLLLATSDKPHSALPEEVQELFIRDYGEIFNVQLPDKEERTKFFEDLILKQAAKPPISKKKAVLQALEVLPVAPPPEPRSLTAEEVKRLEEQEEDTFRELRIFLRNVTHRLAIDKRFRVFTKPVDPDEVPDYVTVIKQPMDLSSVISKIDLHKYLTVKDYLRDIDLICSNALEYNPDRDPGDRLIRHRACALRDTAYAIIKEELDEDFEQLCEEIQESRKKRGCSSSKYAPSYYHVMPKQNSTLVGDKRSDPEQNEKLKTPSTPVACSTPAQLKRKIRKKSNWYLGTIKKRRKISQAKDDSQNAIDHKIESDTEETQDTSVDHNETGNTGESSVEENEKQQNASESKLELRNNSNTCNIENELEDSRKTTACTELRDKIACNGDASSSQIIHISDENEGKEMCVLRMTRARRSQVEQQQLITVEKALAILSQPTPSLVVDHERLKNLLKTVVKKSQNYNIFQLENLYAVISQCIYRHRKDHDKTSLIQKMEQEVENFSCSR

Point of comparison: `Cc1cn([C@@H]2O[C@H](CN)[C@@H](O)[C@H]2O)c(=O)[nH]c1=O`, Kd 17 mM. Against it:
- Cc1cn([C@@H]2O[C@H](CO)[C@@H](O)[C@H]2O)c(=O)[nH]c1=O — within 1.5-fold, 21 mM
- Cc1cn([C@H]2CC[C@@H](CO)O2)c(=O)[nH]c1=O — within 1.5-fold, 18 mM
- Cc1cn([C@H]2C[C@H](O)[C@@H](CO)O2)c(=O)[nH]c1=O [DOXRIBTIMINE] — 1.7-fold lower, 10 mM
- Cc1c[nH]c(=O)[nH]c1=O [THYMINE] — 1.7-fold lower, 10 mM

Reference: ChEMBL document CHEMBL3621199, “Structure-based approaches towards identification of fragments for the low-druggability ATAD2 bromodomain” (Medchemcomm, 2014)
